Data taken from patent US10947215B2, “Heteroaryl compounds and their use as therapeutic drugs” (Dong-A Socio Holdings Co., Ltd., priority 2015, dated 2021).

System: Ba/F3-CDM cells (Ba/F3 transfected with CD8-MerTK)
Test: In cell MER kinase assay, Ba/F3-CDM cell proliferation without IL-3 (Celltiter-Glo, GI50)
Type: cell-based, murine
Details: 48 hours, read-out: Cell growth inhibition (GI50)
Protocol: In Cell MER Kinase Assay Using BaF3 Cellular System
To establish an in cell kinase assay for MerTK kinase, the IL-3 dependent Ba/F3 cells of murine lymphoid origin was transfected with CD8-MerTK. […] For a routine cellular assay, Ba/F3-CDM cells were seeded at 2,000 cells per well in 384-well cell culture plate containing DMEM/10% FBS culture media and incubated for 24 hours before addition of compounds pre-diluted in culture media. Following compound treatment, cells were further incubated for 48 hours and the proliferation was measured. To discriminate a Ba/F3 growth inhibition by a specific inhibition of MerTK kinase following compound treatment vs growth inhibition due to a non-specific unintended cytotoxicity of compounds, we routinely carried out control sets of Ba/F3 cells in parallel that grown in IL3-supplemented growth media. In the presence of IL-3, the proliferation of Ba/F3 is no longer dependent on the MerTK activity. Cell growth and proliferation was measured with Celltiter-Glo™ system (Promega, USA) according to the manufacturer's instruction. The half-maximal growth inhibitory concentration (GI50) value was calculated with Prism6.0 software (GraphPad, USA).

SMILES | GI50 [µM]
Cc1cccc(C)c1CO[C@H]1CCC[C@@H]1NC(=O)c1cc(-c2cnn(C)c2)cnc1N [Example 15, 2-amino-N-((1S,2S)-2-((2,6-dimethylbenzyl)oxy)cyclopentyl)-5-(1-methyl-1H-pyrazol-4-yl)nicotinamide] | > 1
CCc1cc(CO[C@H]2CCC[C@@H]2NC(=O)c2cc(-c3cnn(C)c3)cnc2N)ccc1C [Example 21] | > 1
Cn1cc(-c2cnc(N)c(C(=O)N[C@H]3CCC[C@@H]3OCc3ccc(-c4ccc(CCN)cc4)cc3)c2)cn1 [Example 145, 2-amino-N-((1S,2S)-2-((4′-(2-aminoethyl)-[1,1′-biphenyl]-4-yl)methoxy)cyclopentyl)-5-(1-methyl-1H-pyrazol-4-yl)nicotinamide] | > 1
CN1CCN(c2ccc(-c3ccc(CO[C@H]4CCC[C@@H]4NC(=O)c4cc(-c5cnn(C)c5)cnc4N)cc3)cn2)CC1 [Example 148, 2-amino-5-(1-methyl-1H-pyrazol-4-yl)-N-((1S,2S)-2-((4-(6-(4-methylpiperazin-1-yl)pyridin-3-yl)benzyl)oxy)cyclopentyl)nicotinamide] | > 1
Cn1cc(-c2cnc(N)c(C(=O)N[C@H]3CCC[C@@H]3OCc3ccc(-c4ccc(CN5CCC(O)CC5)cc4)cc3)c2)cn1 [Example 180, 2-amino-N-((1S,2S)-2-((4′-((4-hydroxypiperidin-1-yl)methyl)-[1,1′-biphenyl]-4-yl)methoxy)cyclopentyl)-5-(1-methyl-1H-pyrazol-4-yl)nicotinamide] | > 1
C[C@@H]1CN(C)CCN1Cc1ccc(-c2ccc(CO[C@H]3CCC[C@@H]3NC(=O)c3cc(-c4cnn(C)c4)cnc3N)cc2)cc1 [Example 187, 2-amino-N-((1S,2S)-2-((4′-(((R)-2,4-dimethylpiperazin-1-yl)-methyl)-[1,1′-biphenyl]-4-yl)methoxy)cyclopentyl)-5-(1-methyl-1H-pyrazol-4-yl)-nicotinamide] | < 0.1
CCC1CN(Cc2ccc(-c3ccc(CO[C@H]4CCC[C@@H]4NC(=O)c4cc(-c5cnn(C)c5)cnc4N)cc3)cc2)CCN1C (stereo partly drawn) [Example 188, 2-amino-N-((1S,2S)-2-((4′-((3-ethyl-4-methylpiperazin-1-yl)-methyl)-[1,1′-biphenyl]-4-yl)methoxy)cyclopentyl)-5-(1-methyl-1H-pyrazol-4-yl)-nicotinamide] | < 0.1
C[C@@H]1CN(Cc2ccc(-c3ccc(CO[C@H]4CCC[C@@H]4NC(=O)c4cc(-c5cnn(C)c5)cnc4N)cc3)cc2)C[C@H](C)N1 [Example 189, 2-amino-N-((1S,2S)-2-((4′-((cis-3,5-dimethylpiperazin-1-vi)-methyl)-[1,1′-biphenyl]-4-yl)methoxy)cyclopentyl)-5-(1-methyl-1H-pyrazol-4-yl)-nicotinamide] | 0.1 to 0.5
CC1CN[C@@H](C)CN1Cc1ccc(-c2ccc(CO[C@H]3CCC[C@@H]3NC(=O)c3cc(-c4cnn(C)c4)cnc3N)cc2)cc1 (stereo partly drawn) [Example 191, 2-amino-N-((1S,2S)-2-((4′-((trans-2,5-dimethylpiperazin-1-yl)methyl)-[1,1′-biphenyl]-4-yl)methoxy)cyclopentyl)-5-(1-methyl-1H-pyrazol-4-yl)nicotinamide] | 0.1 to 0.5
CN(C)C1CCN(Cc2ccc(-c3ccc(CO[C@H]4CCC[C@@H]4NC(=O)c4cc(-c5cnn(C)c5)cnc4N)cc3)cc2)C1 (stereo partly drawn) [Example 193, 2-amino-N-((1S,2S)-2-((4′-((3-(dimethylamino)pyrrolidin-1-yl)methyl)-[1,1′-biphenyl]-4-yl)methoxy)cyclopentyl)-5-(1-methyl-1H-pyrazol-4-yl)nicotinamide] | < 0.1
CN1CCN(Cc2ccc(-c3ccc(CO[C@H]4CCC[C@@H]4NC(=O)c4nc(-c5cnn(C)c5)cnc4N)cc3)cc2)CC1 [Example 194, 3-amino-6-(1-methyl-1H-pyrazol-4-yl)-N-((1S,2S)-2-((4′-((4-methylpiperazin-1-yl)methyl)-[1,1′-biphenyl]-4-yl)methoxy)cyclopentyl)pyrazine-2-carboxamide] | < 0.1
CN1CCN(Cc2ccc(-c3ccc(CO[C@H]4CCC[C@@H]4NC(=O)c4cc(-c5cnn(C)c5)cnc4N)cc3)cc2F)CC1 [Example 195, 2-amino-N-((1S,2S)-2-((3′-fluoro-4′-((4-methylpiperazin-1-yl)-methyl)-[1,1′-biphenyl]-4-yl)methoxy)cyclopentyl)-5-(1-methyl-1H-pyrazol-4-yl)-nicotinamide] | < 0.1
CN1CCN(Cc2ccc(-c3ccc(CO[C@H]4CCC[C@@H]4NC(=O)c4cc(-c5cnn(C)c5)cnc4N)cc3)cc2C(F)(F)F)CC1 [Example 197, 2-amino-5-(1-methyl-1H-pyrazol-4-yl)-N-((1S,2S)-2-((4′-((4-methylpiperazin-1-yl)methyl)-3′-(trifluoromethyl)-[1,1′-biphenyl]-4-yl)methoxy)-cyclopentyl)nicotinamide] | < 0.1
Cc1cc(-c2ccc(CO[C@H]3CCC[C@@H]3NC(=O)c3cc(-c4cnn(C)c4)cnc3N)cc2)ccc1CN1CCN(C)CC1 [Example 198, 2-amino-5-(1-methyl-1H-pyrazol-4-yl)-N-((1S,2S)-2-((3′-methyl-4′-((4-methylpiperazin-1-yl)methyl)-[1,1′-biphenyl]-4-yl)methoxy)cyclopentyl)-nicotinamide] | < 0.1
CN1CCN(Cc2ccc(-c3ccc(CO[C@H]4CCC[C@@H]4NC(=O)c4cc(-c5cnn(C)c5)cnc4N)cc3)cc2O)CC1 [Example 199, 2-amino-N-((1S,2S)-2-((3′-hydroxy-4′-((4-methylpiperazin-1-yl)methyl)-[1,1′-biphenyl]-4-yl)methoxy)cyclopentyl)-5-(1-methyl-1H-pyrazol-4-yl)nicotinamide] | < 0.1
Cn1cc(-c2cnc(N)c(C(=O)N[C@H]3CCC[C@@H]3OCc3ccc(-c4ccc(CN5CCN(CCO)CC5)c(C(F)(F)F)c4)cc3)c2)cn1 [Example 205, 2-amino-N-((1S,2S)-2-((4′-((4-(2-hydroxyethyl)piperazin-1-yl)methyl)-3′-(trifluoromethyl)-[1,1′-biphenyl]-4-yl)methoxy)cyclopentyl)-5-(1-methyl-1H-pyrazol-4-yl)nicotinamide] | < 0.1

The next lines start with the values.

GI50 [µM] | SMILES
< 0.1 | CN(C)c1ccc(-c2ccc(CO[C@H]3CCC[C@@H]3NC(=O)c3cc(-c4cnn(C)c4)cnc3N)cc2)cc1 [Example 137, 2-amino-N-((1S,2S)-2-((4′-(dimethylamino)-[1,1′-biphenyl]-4-yl)methoxy)cyclopentyl)-5-(1-methyl-1H-pyrazol-4-yl)nicotinamide]
< 0.1 | CN1CCN(c2ccc(-c3ccc(CO[C@H]4CCC[C@@H]4NC(=O)c4cc(-c5cnn(C)c5)cnc4N)cc3)cc2)CC1 [Example 146, 2-amino-5-(1-methyl-1H-pyrazol-4-yl)-N-((1S,2S)-2-((4′-(4-methylpiperazin-1-yl)-[1,1′-biphenyl]-4-yl)methoxy)cyclopentyl)nicotinamide]
< 0.1 | CN1CCN(Cc2ccc(-c3ccc(CO[C@H]4CCC[C@@H]4NC(=O)c4cc(-c5cnn(C)c5)cnc4N)c(F)c3)cc2)CC1 [Example 156, 2-amino-N-((1S,2S)-2-((3-fluoro-4′-((4-methylpiperazin-1-yl)-methyl)-[1,1′-biphenyl]-4-yl)methoxy)cyclopentyl)-5-(1-methyl-1H-pyrazol-4-yl)-nicotinamide]
< 0.1 | CN1CCN(CCc2ccc(-c3ccc(CO[C@H]4CCC[C@@H]4NC(=O)c4cc(-c5cnn(C)c5)cnc4N)cc3)cc2)CC1 [Example 161, 2-amino-5-(1-methyl-1H-pyrazol-4-yl)-N-((1S,2S)-2-((4′-(2-(4-methylpiperazin-1-yl)ethyl)-[1,1′-biphenyl]-4-yl)methoxy)cyclopentyl)nicotinamide]
< 0.1 | Cn1cc(-c2cnc(N)c(C(=O)N[C@H]3CCC[C@@H]3OCc3ccc(-c4ccc(CN5CCN(CCO)CC5)cc4)cc3)c2)cn1 [Example 181, 2-amino-N-((1S,2S)-2-((4′-((4-(2-hydroxyethyl)piperazin-1-yl)-methyl)-[1,1′-biphenyl]-4-yl)methoxy)cyclopentyl)-5-(1-methyl-1H-pyrazol-4-yl)-nicotinamide]
< 0.1 | Cn1cc(-c2cnc(N)c(C(=O)N[C@H]3CCC[C@@H]3OCc3ccc(-c4ccc(CN5CCN(CC(C)(C)O)CC5)cc4)cc3)c2)cn1 [Example 182, 2-amino-N-((1S,2S)-2-((4′-((4-(2-hydroxy-2-methylpropyl)-piperazin-1-yl)methyl)-[1,1′-biphenyl]-4-yl)methoxy)cyclopentyl)-5-(1-methyl-1H-pyrazol-4-yl)nicotinamide]
< 0.1 | CCN1CCN(Cc2ccc(-c3ccc(CO[C@H]4CCC[C@@H]4NC(=O)c4cc(-c5cnn(C)c5)cnc4N)cc3)cc2)CC1 [Example 183, 2-amino-N-((1S,2S)-2-((4′-((4-ethylpiperazin-1-yl)methyl)-[1,1′-biphenyl]-4-yl)methoxy)cyclopentyl)-5-(1-methyl-1H-pyrazol-4-yl)nicotinamide]
< 0.1 | Cn1cc(-c2cnc(N)c(C(=O)N[C@H]3CCC[C@@H]3OCc3ccc(-c4ccc(CN5CCN(C6CC6)CC5)cc4)cc3)c2)cn1 [Example 184, 2-amino-N-((1S,2S)-2-((4′-((4-cyclopropylpiperazin-1-yl)methyl)-[1,1′-biphenyl]-4-yl)methoxy)cyclopentyl)-5-(1-methyl-1H-pyrazol-4-yl)nicotinamide]
< 0.1 | C[C@@H]1CN(Cc2ccc(-c3ccc(CO[C@H]4CCC[C@@H]4NC(=O)c4cc(-c5cnn(C)c5)cnc4N)cc3)cc2)CCN1C [Example 186, 2-amino-N-((1S,2S)-2-((4′-(((R)-3,4-dimethylpiperazin-1-yl)-methyl)-[1,1′-biphenyl]-4-yl)methoxy)cyclopentyl)-5-(1-methyl-1H-pyrazol-4-yl)-nicotinamide]
